From ChEMBL document CHEMBL4819067, “Discovery of novel pyrimidine molecules containing boronic acid as VCP/p97 Inhibitors” (Bioorg Med Chem, 2021)

How the values were obtained:
[1] = tested on: A549; assay: Cytotoxicity against human A549 cells assessed as reduction in cell viability incubated for 72 hrs by CCK8 assay; type: functional, cell-based; conditions: A549, 72 h
[2] = biological target: Transitional endoplasmic reticulum ATPase (Homo sapiens, UniProt P55072); assay: Inhibition of p97 (unknown origin) incubated for 60 mins by ADP-Glo assay
[3] = tested on: RPMI-8226; assay: Cytotoxicity against human RPMI-8226 cells assessed as reduction in cell viability incubated for 72 hrs by CCK8 assay; type: functional, cell-based
[4] = Homo sapiens, RPMI-8226, 72 h, read-out: IC50

Sequence of Transitional endoplasmic reticulum ATPase (P55072 whole entry): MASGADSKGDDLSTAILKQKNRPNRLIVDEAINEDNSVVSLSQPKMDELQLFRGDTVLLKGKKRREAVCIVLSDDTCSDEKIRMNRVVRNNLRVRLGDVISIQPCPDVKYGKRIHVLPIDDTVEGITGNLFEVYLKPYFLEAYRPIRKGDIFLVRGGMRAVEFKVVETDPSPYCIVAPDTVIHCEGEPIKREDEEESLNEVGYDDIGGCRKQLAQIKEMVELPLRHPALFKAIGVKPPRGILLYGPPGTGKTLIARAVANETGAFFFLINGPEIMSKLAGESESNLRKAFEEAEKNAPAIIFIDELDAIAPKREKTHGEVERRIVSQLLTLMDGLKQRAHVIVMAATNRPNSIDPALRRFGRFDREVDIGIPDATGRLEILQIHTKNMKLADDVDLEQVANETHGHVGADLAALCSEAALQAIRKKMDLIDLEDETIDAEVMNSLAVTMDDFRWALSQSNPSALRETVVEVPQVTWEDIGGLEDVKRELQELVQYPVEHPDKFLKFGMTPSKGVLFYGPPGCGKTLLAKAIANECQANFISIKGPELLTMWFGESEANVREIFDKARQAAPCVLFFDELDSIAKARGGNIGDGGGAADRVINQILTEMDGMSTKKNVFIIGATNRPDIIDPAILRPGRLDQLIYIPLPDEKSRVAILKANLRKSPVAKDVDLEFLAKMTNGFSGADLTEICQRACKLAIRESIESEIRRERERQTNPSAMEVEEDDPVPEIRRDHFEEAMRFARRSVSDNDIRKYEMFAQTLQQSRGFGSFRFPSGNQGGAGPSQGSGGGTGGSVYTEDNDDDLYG

Row | IC50 [2] [nM] | Compound | IC50 [1] [nM] | IC50 [3, 4] [nM] | IC50 ([3]; rpmi-8226)
1 | 45.6 | Cc1cc2c(NS(C)(=O)=O)cccc2n1-c1nc2c(c(NCc3cccc(B(O)O)c3)n1)CCCC2 | 2420 | 1550 | 
2 | 692 | Cc1cc2c(NC(=O)CC#N)cccc2n1-c1nc2c(c(NCc3cccc(B(O)O)c3)n1)CCC2 |  |  | 
3 | 436 | Cc1cc2c(NC(=O)CCCl)cccc2n1-c1nc2c(c(NCc3cccc(B(O)O)c3)n1)CCC2 |  |  | 
4 | 57.3 | Cc1cc2c(NC(=O)c3ccco3)cccc2n1-c1nc2c(c(NCc3cccc(B(O)O)c3)n1)CCC2 | 3550 | 2300 | 
5 | 32 | CC#CC(=O)Nc1cccc2c1cc(C)n2-c1ncc(OC)c(NCc2cccc(B(O)O)c2)n1 | 6100 | 2400 | 
6 | 166 | C/C=C/C(=O)Nc1cccc2c1cc(C)n2-c1nc2c(c(NCc3cccc(B(O)O)c3)n1)CCC2 | 4450 |  | Not Active
7 | 162 | Cc1cc2c(NC(=O)c3ccco3)cccc2n1-c1nc(NCc2cccc(B(O)O)c2)c2ccccc2n1 | 5800 | 3200 | 
8 | 192 | C=CC(=O)Nc1cccc2c1cc(C)n2-c1nc2c(c(NCc3cccc(B(O)O)c3)n1)CCC2 | 4750 | 2940 | 
9 | 117 | CC#CC(=O)Nc1cccc2c1cc(C)n2-c1nc2c(c(NCc3cccc(B(O)O)c3)n1)COCC2 | 4100 | 2900 | 
10 | 58.6 | CC#CC(=O)Nc1cccc2c1cc(C)n2-c1nc2c(c(NCc3cccc(B(O)O)c3)n1)CCC2 | 3150 | 1730 | 
11 | 468 | Cc1cc2c(NC(=O)c3cscn3)cccc2n1-c1nc2c(c(NCc3cccc(B(O)O)c3)n1)CCC2 |  |  | 
12 | 241 | Cc1cc2c(NC(=O)c3ccno3)cccc2n1-c1nc2c(c(NCc3cccc(B(O)O)c3)n1)CCC2 |  |  | 
13 | 114 | CC#CC(=O)Nc1cccc2c1cc(C)n2-c1nc(NCc2cccc(B(O)O)c2)c2ccccc2n1 | 5600 | 2200 | 
14 | 88.9 | Cc1cc2c(NS(C)(=O)=O)cccc2n1-c1nc(NCc2cccc(B(O)O)c2)c2ccccc2n1 | 5600 | 3600 | 
15 | 117 | Cc1cc2c(NS(C)(=O)=O)cccc2n1-c1nc2c(c(NCc3cccc(B(O)O)c3)n1)COCC2 | > 10000 | 5100 | 
16 | 91 | Cc1cc2c(NC(=O)c3ccco3)cccc2n1-c1nc2c(c(NCc3cccc(B(O)O)c3)n1)COCC2 | 4380 | 2700 | 
17 | 54.7 | Cc1cc2c(NS(C)(=O)=O)cccc2n1-c1nc2c(c(NCc3cccc(B(O)O)c3)n1)CCC2 | 2800 | 860 | 
18 | 97.4 | COc1cnc(-n2c(C)cc3c(NC(=O)c4ccco4)cccc32)nc1NCc1cccc(B(O)O)c1 | 3770 | 1900 | 
19 | 89.8 | CC#CC(=O)Nc1cccc2c1cc(C)n2-c1nc2c(c(NCc3cccc(B(O)O)c3)n1)CCCC2 | 2150 | 1500 | 
20 | 258 | Cc1cc2c(NC(=O)CCl)cccc2n1-c1nc2c(c(NCc3cccc(B(O)O)c3)n1)CCC2 |  |  | 
21 | 93.4 | Cc1cc2c(NC(=O)c3ccco3)cccc2n1-c1nc2c(c(NCc3cccc(B(O)O)c3)n1)CCCC2 | 3120 | 2330 | 
22 | 91.4 | C#CC(=O)Nc1cccc2c1cc(C)n2-c1nc2c(c(NCc3cccc(B(O)O)c3)n1)CCC2 | 2100 | 1270 | 
